Results taken from US7316989B2 (priority 2001, dated 2008).
Like-named read-outs stand apart in the source and are kept apart here.

Legend:
[1] = system: rice blast (leaf blast); type: in vivo, Magnaporthe grisea; conditions: rice (Koshihikari) field, spray 120 L/10 are on 44th and 51st days after transplantation; E and F 20 ppm in terms of cerebroside B, F and G with Mylinow spreader, G 500 ppm fthalide; leaf blast one month after initial application
[2] = system: rice blast fungus (Magnaporthe grisea, race: 007); type: in vivo
[3] = system: Brown spot fungus (Cochliobolus miyabeanus); assay: Rice Brown spot control test; type: in vivo; conditions: same treatment as Example 3 (10 ppm in terms of cerebroside B), counted two days after spray inoculation
[4] = system: sweet potato dead arm fungus (Fusarium oxysporum); assay: Sweet potato stem rot control test; conditions: sweet potato (Benikomachi) roots submerged 30 min, 20 ppm in terms of cerebroside B; disease development of roots 26 days after transplantation
Procedure: The root parts of seedling sweet potatoes (variety: Benikomachi) infected with sweet potato dead arm fungus (Fusarium oxysporum) were submerged in each sample solution for 30 min before planting in a field. Individual plots were treated by the following sample liquids. Experimental plot (E) was treated with a liquid (concentration: 20 ppm in terms of cerebroside B) prepared by diluting ethanol extract concentrate A prepared in Example 1 by 150 times. Comparison plot (H) was treated with a liquid having a cerebroside B concentration of 20 ppm. The number of plants per plot was 20, and one plot consisted of four blocks which were provided at intervals of 60 cm. In this state, the plants were transplanted in the field.
The percentage disease development of roots was investigated 26 days after the transplantation, and the protective value was calculated from the average percentage disease development of roots.

[5] = system: tomato verticullium wilt fungus (Verticillium dahliae); assay: Tomato verticillium wilt control test; type: in vivo; conditions: submersion 12 hr, 20 ppm in terms of cerebroside B, 21st day
[6] = system: lettuce root rot fungus (Fusarium oxysporum f. sp. lactucae race SB1-1); assay: Lettuce root rot control test; type: in vivo; conditions: submersion treatment, 20 ppm cerebroside B solution (H)

Structure (SMILES): CCCCCCCCCCCCCC[C@@H](O)C(=O)N[C@@H](CO[C@@H]1O[C@H](CO)[C@@H](O)[C@H](O)[C@H]1O)[C@H](O)/C=C/CC/C=C(\C)CCCCCCCCC [cerebroside B, (4E,8E)-N-D-2′-hydroxypalmitoyl-1-O-β-D-glucopyranosyl-9-methyl-4,8-sphingadienine]
- Protective value [1]: 93
- Protective value ([2]; Example 4, 10 ppm in terms of cerebroside B, 2 ml per pot to foliage, plot B with 0.1% Tween 20 as spreader): 87.6
- Number of lesions (average number of lesions per leaf) ([2]; Example 4, 10 ppm in terms of cerebroside B, 2 ml per pot to foliage, plot B with 0.1% Tween 20 as spreader, control plot 18.6): 2.3
- Protective value ([2]; rice (Akitakomachi), foliar application 2 ml per pot, diluted to 10 ppm in terms of cerebroside B, inoculation 3 days after treatment, lesions counted 5 days after inoculation): 90
- Protective value [3]: 87.3
- Number of lesions (average number of lesions per leaf) ([3]; control plot 10.2): 1.3
- Protective value [4]: 70
- Protective value [5]: 60
- Protective value ([6]; 28th day): 78
- Raw weight ratio on ground part ([6]; control plot = 100): 231
